In ChEMBL document CHEMBL6078615, “Sesquilignans: Current research and potential prospective” (Eur J Med Chem, 2024):
≈ marks a conversion by molar mass, not a printed value.

Tests used:
[1] = system: SH-SY5Y; assay: Inhibition of H2O2-induced oxidative stress in human SH-SY5Y cells assessed as residual ROS level at 25 uM incubated for 3 hrs relative to control; assay type: functional
[2] = system: RAW264.7; assay: Anti-inflammatory activity in mouse RAW264.7 cells assessed as inhibition of LPS-induced NO production pre-incubated for 2 hrs followed by LPS-stimulation for 22 hrs by Griess reaction assay; assay type: functional; set-up: concentration or dose not given beside the values; settings: time 24 hrs
[3] = system: HeLa; assay: Cytotoxicity against human HeLa cells assessed as reduction in cell viability incubated for 48 hrs by MTT assay; assay type: functional, cell-based
[4] = system: CNE-2; assay: Anticancer activity against human CNE-2 cells assessed as reduction in cell growth; assay type: functional, cell-based
[5] = system: K562; assay: Antiproliferative activity against human K562 cells assessed as reduction in cell viability incubated for 72 hrs by CCK-8 assay; assay type: functional, cell-based; settings: K562, 72 h
[6] = system: Ebolavirus; assay: Antiviral activity against Ebola virus; assay type: functional, organism-based; settings: Orthoebolavirus
[7] = system: MCF7; assay: Cytotoxicity against human MCF7 cells assessed as reduction in cell viability incubated for 72 hrs by MTT assay; assay type: functional, cell-based; settings: MCF7, 72 h
[8] = system: HL-60; assay: Antiproliferative activity against human HL-60 cells assessed as reduction in cell viability incubated for 72 hrs by MTT assay; assay type: functional, cell-based; settings: HL-60, 72 h
[9] = system: HepG2; assay: Cytotoxicity against human HepG2 cells assessed as reduction in cell viability by MTT assay; assay type: functional, cell-based
[10] = system: SH-SY5Y; assay: Induction of apoptosis in human SH-SY5Y cells assessed as increase in caspase-3 activity at 25 uM incubated for 72 hrs by colorimetric assay relative to control; assay type: functional
[11] = Inhibition of alpha-glucosidase (unknown origin); set-up: species or system Homo sapiens
[12] = system: BV-2; assay: Anti-inflammatory activity against mouse BV-2 cells assessed as inhibition of LPS-induced NO production at 10 uM pretreated for 2 hrs followed stimulated with LPS for 22 hrs by Griess reaction assay relative to control; assay type: functional; settings: time 24 hrs
[13] = system: HT-29; assay: Antiproliferative activity against human HT-29 cells assessed as reduction in cell viability after 72 hrs by MTS assay; assay type: functional, cell-based; settings: HT-29, 72 h
[14] = system: BV-2; assay: Anti-inflammatory activity against mouse BV-2 cells assessed as inhibition of LPS-induced NO production pretreated for 2 hrs followed stimulated with LPS for 22 hrs by Griess reaction assay; assay type: functional, cell-based
[15] = Antioxidant activity assessed as DPPH radical scavenging activity incubated for 30 mins by spectrophotometric analysis; assay type: functional
[16] = system: RAW264.7; assay: Antiinflammatory activity in LPS-induced mouse RAW264.7 cells assessed as inhibition of TNFalpha secretion preincubated for 1 hr followed by LPS addition measured for 24 hrs by ELISA method; assay type: functional, cell-based
[17] = system: RAW264.7; assay: Antiinflammatory activity in LPS-induced mouse RAW264.7 cells assessed as inhibition of IL-1beta secretion preincubated for 1 hr followed by LPS addition for 24 hrs by ELISA method; assay type: functional, cell-based
[18] = system: RAW264.7; assay: Antiinflammatory activity in LPS-induced mouse RAW264.7 cells assessed as inhibition of IL-6 secretion preincubated for 1 hr followed by LPS addition for 24 hrs by ELISA method; assay type: functional, cell-based
[19] = target: Acetylcholinesterase (Homo sapiens, UniProt P22303); assay: Inhibition of AChE (unknown origin)
[20] = Cytotoxicity against human HUVEC cells assessed as reduction in cell growth incubated for 48 hrs by CCK-8 method; assay type: toxicity, cell-based

Acetylcholinesterase, sequence (P22303 whole entry): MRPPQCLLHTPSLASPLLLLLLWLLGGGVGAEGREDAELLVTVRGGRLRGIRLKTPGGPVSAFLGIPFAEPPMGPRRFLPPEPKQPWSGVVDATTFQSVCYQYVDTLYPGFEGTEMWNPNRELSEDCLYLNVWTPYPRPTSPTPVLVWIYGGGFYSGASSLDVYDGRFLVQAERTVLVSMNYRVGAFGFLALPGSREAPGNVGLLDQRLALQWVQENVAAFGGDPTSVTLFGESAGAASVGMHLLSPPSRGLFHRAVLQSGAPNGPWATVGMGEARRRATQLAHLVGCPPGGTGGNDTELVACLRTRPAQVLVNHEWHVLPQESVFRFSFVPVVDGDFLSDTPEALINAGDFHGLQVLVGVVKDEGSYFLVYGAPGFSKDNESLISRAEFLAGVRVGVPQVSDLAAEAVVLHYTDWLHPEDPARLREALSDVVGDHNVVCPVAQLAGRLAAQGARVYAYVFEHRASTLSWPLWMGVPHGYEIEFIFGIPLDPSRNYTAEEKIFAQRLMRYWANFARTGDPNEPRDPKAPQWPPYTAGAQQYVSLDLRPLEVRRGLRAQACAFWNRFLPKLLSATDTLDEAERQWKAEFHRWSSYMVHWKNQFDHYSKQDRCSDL

Compound: CCO[C@@H](c1ccc(O)c(OC)c1)[C@H](CO)Oc1ccc([C@H](O)[C@@H](CO)Oc2ccc(CCCO)cc2OC)cc1OC
- Activity [1]: 71.1%

Compound: COc1ccc([C@@H](O)[C@@H](C)Oc2ccc([C@H]3O[C@H](c4ccc5c(c4)OCO5)[C@H](C)[C@H]3C)cc2OC)cc1OC
- Activity [2]: 2.62%

Compound: COc1cc(C[C@@H](CO)[C@H](CO)Cc2cc(OC)c3c(c2)[C@H](CO)[C@@H](c2ccc(O)c(OC)c2)O3)ccc1O
- IC50 [3]: 114 µg/mL (≈ 211 µM)
- EC50 [4]: 2 µg/mL (≈ 3.7 µM)

Compound: COc1cc(C[C@H]2C(=O)OC[C@@H]2Cc2cc(OC)c3c(c2)[C@H](CO)[C@@H](c2ccc(O)c(OC)c2)O3)ccc1O
- IC50 [5]: 51.1 µg/mL (≈ 95.2 µM)

Compound: COc1cc([C@@H](O)[C@@H](CO)Oc2c(OC)cc([C@@H]3Oc4c(OC)cc([C@H](O)[C@H](O)CO)cc4[C@H]3CO)cc2OC)ccc1O
- Activity [1]: 75.63%

Compound: COc1cc([C@@H](O)[C@@H](C)Oc2ccc([C@@H]3O[C@H](c4ccc(O)c(OC)c4)[C@H](C)[C@H]3C)cc2OC)ccc1O
- EC50 [6]: 6.95 µM

Compound: COc1cc([C@@H](O)[C@@H](C)Oc2ccc([C@H]3O[C@@H](c4ccc(O)c(OC)c4)[C@H](C)[C@H]3C)cc2OC)ccc1O
- Activity [2]: 18.1%
- IC50 [7]: 9.8 µM
- IC50 [8]: 11 µM
- IC50 [9]: 11 µM

Compound: COc1cc([C@@H]2c3cc(O[C@H](CO)[C@H](O)c4ccc(O)c(OC)c4)c(OC)cc3C[C@H](CO)[C@H]2CO)ccc1O
- Activity [10]: 80.72%

Compound: COc1ccc([C@@H]2O[C@H](c3ccc(OC)c(O[C@H](C)[C@@H](O)c4ccc(O)c(OC)c4)c3)[C@H](C)[C@H]2C)cc1O
- Activity [2]: 18.1%
- IC50 [7]: 8.8 µM

Compound: COc1cc([C@H]2Oc3c(OC)cc(C[C@H]4C(=O)OC[C@@H]4Cc4ccc(OC)c(OC)c4)cc3[C@@H]2CO)ccc1O
- IC50 [5]: 38.5 µg/mL (≈ 69.9 µM)

Compound: COc1cc([C@@H]2c3c(cc(OC)c4c3[C@H](CO)[C@H](c3ccc(O)c(OC)c3)O4)C[C@H](CO)[C@H]2CO)ccc1O
- Activity [2]: 19.46%

Compound: Oc1ccc(/C=C/C[C@@H]2CC(C(O)c3ccc(O)cc3)CO[C@H]2c2ccc(O)cc2)cc1 (some centres not stated)
- Activity [2]: 33%

Compound: COc1ccc([C@@H]2O[C@H](c3ccc(OC)c(O[C@@H](C)[C@@H](OC)c4ccc(OC)c(O)c4)c3)[C@@H](C)[C@@H]2C)cc1O
- Activity [2]: 18.1%
- IC50 [7]: 8.4 µM

Compound: COc1cc(C[C@H]2COC(=O)[C@@H]2Cc2cc(OC)c3c(c2)[C@H](CO)[C@@H](c2ccc(O)c(OC)c2)O3)ccc1O
- IC50 [5]: 53.5 µg/mL (≈ 99.7 µM)

Compound: COc1cc(O)cc([C@@H]2c3c(cc(OC)c4c3[C@H](CO)[C@H](c3ccc(O)c(OC)c3)O4)C[C@H](CO)[C@H]2CO)c1
- IC50 [11]: 5.17 µM

Compound: COc1cc([C@H]2OC[C@H]3[C@@H]2CO[C@@H]3c2cc(OC)c3c(c2)[C@H](CO)[C@@H](c2ccc(O)c(OC)c2)O3)ccc1O
- inhibition at 10 µM [12]: 50.7%

Compound: COc1cc([C@H]2O[C@H](c3ccc4c(c3)OCO4)[C@H](C)[C@H]2C)ccc1O[C@H](C)[C@H](O)c1ccc2c(c1)OCO2
- IC50 [13]: 10 µM

Compound: COc1cc([C@H]2OC[C@H]3[C@@H]2CO[C@@H]3c2cc(OC)c(OC)c(OC)c2)ccc1O[C@@H](CO)[C@H](O)c1cc(OC)c(OC)c(OC)c1
- IC50 [14]: 10.9 µM

Compound: COc1cc([C@@H](O)[C@@H](CO)Oc2ccc([C@H](O)[C@H](CO)Oc3c(OC)cc([C@H](O)[C@H](O)CO)cc3OC)cc2OC)ccc1O
- Activity [1]: 74.78%

Compound: C=CCc1ccc2c(c1)O[C@@H](c1ccc(O)c(O)c1)[C@H](Cc1cc(O)c(O)cc1CC=C)O2
- Activity [2]: 9.87%

Compound: COc1cc([C@@H](O)[C@@H](CO)Oc2ccc([C@@H]3OC[C@@H]4[C@H]3CO[C@H]4c3ccc(O)c(OC)c3)cc2OC)ccc1O
- IC50 [11]: 3.05 µM

Compound: OC/C=C/c1ccc2c(c1)O[C@H](c1ccc3c(c1)O[C@@H](c1ccc(O)c(O)c1)[C@H](CO)O3)[C@@H](CO)O2
- IC50 [11]: 0.62 µM

Compound: COc1cc([C@H]2OC[C@H]3[C@@H]2CO[C@@H]3c2cc(OC)c(O[C@@H](CO)[C@@H](OC)c3ccc(O)c(OC)c3)c(OC)c2)ccc1O
- IC50 [15]: 55.8 µM

Compound: COc1cc([C@@H](O)[C@H](CO)Oc2ccc([C@H]3OC[C@H]4[C@@H]3CO[C@@H]4c3ccc(O)c(OC)c3)cc2OC)ccc1O
- IC50 [11]: 5.17 µM

Compound: CC(Cc1ccc(O)cc1)c1cc([C@H]2O[C@@H](c3ccc(O)c(O)c3)[C@H](C)[C@H]2C)ccc1O (some centres not stated)
- IC50 [15]: 1.12 µM

Compound: COc1cc([C@H](O)[C@@H](CO)Oc2c(OC)cc([C@H]3OC[C@H]4[C@@H]3CO[C@@H]4c3cc(OC)c(O)c(OC)c3)cc2OC)ccc1O
- IC50 [16]: 50.9 µM
- IC50 [17]: 10.9 µM
- IC50 [18]: 2400 nM

Compound: COc1cc(CC(CO)C(CO)Cc2ccc(OC(CO)C(O)c3ccc(O)c(OC)c3)c(OC)c2)ccc1O (configuration not stated)
- IC50 [3]: 195 µg/mL (≈ 348 µM)
- EC50 [4]: 2.4 µg/mL (≈ 4.3 µM)

Compound: COc1cc([C@H](O)[C@@H](CO)Oc2ccc([C@@H](O)[C@H](CO)Oc3c(OC)cc([C@H](O)[C@@H](O)CO)cc3OC)cc2OC)ccc1O
- Activity [1]: 75.9%

Compound: COc1cc([C@@H]2c3cc(O[C@H](CO)[C@@H](O)c4ccc(O)c(OC)c4)c(OC)cc3C[C@H](CO)[C@@H]2CO)ccc1O
- Activity [10]: 79.36%

Compound: COc1cc([C@H](OC)[C@@H](CO)Oc2c(OC)cc([C@@H]3Oc4c(OC)cc([C@H](O)[C@@H](O)CO)cc4[C@H]3CO)cc2OC)ccc1O
- Activity [1]: 76.21%

Compound: COc1cc([C@H](O)[C@@H](CO)Oc2ccc([C@@H](O)[C@@H](CO)Oc3c(OC)cc(CCCO)cc3OC)cc2OC)ccc1O
- Activity [1]: 77.58%

Compound: COc1ccc([C@@H](O)[C@@H](C)Oc2ccc([C@H]3O[C@H](c4ccc(OC)c(OC)c4)[C@H](C)[C@H]3C)cc2OC)cc1OC
- EC50 [6]: 1.7 µM

Compound: COc1cc(/C=C/C=O)cc2c1O[C@H](c1ccc3c(c1)[C@H](CO)[C@@H](c1ccc(O)cc1)O3)[C@H]2CO
- IC50 [14]: 38.9 µM

Compound: C=CCc1ccc(O)c(-c2cc(CC=C)cc(-c3cc(CC=C)ccc3O)c2O[C@H]2CC(C)(C)[C@@H]3CC[C@]4(C)C[C@]23CC[C@H]4O)c1
- IC50 [19]: 4.58 µM

Compound: COc1cc([C@H](OC)[C@@H](CO)Oc2ccc([C@@H](O)[C@H](CO)Oc3ccc(CCCO)cc3OC)cc2OC)ccc1O
- Activity [1]: 74.22%

Compound: COc1cc([C@H]2OC[C@H]3[C@@H]2CO[C@@H]3c2ccc(O[C@H](CO)[C@@H](O)c3ccc(O)c(OC)c3)c(OC)c2)ccc1O
- IC50 [11]: 6.73 µM

Compound: COc1cc([C@@H](O)[C@@H](CO)Oc2c(OC)cc([C@@H]3Oc4c(OC)cc([C@H](O)[C@@H](O)CO)cc4[C@H]3CO)cc2OC)ccc1O
- Activity [1]: 63.72%

Compound: C=CCc1ccc(Oc2cc(CC=C)cc(-c3cc(CC=C)ccc3O)c2O)cc1
- IC50 [19]: 10 µM

Compound: COCc1c(-c2ccc(O)c(OC)c2)oc2c(OC)cc([C@H]3OC[C@@H]4[C@H]3CO[C@@H]4c3ccc(O)c(OC)c3)cc12
- IC50 at 48 h [20]: 32.8 µM

Compound: COc1cc([C@@H]2c3c(cc(OC)c4c3[C@H](CO)[C@H](c3ccc(O[C@@H]5O[C@H](CO)[C@@H](O)[C@H](O)[C@H]5O)c(OC)c3)O4)C[C@H](CO)[C@H]2CO)ccc1O
- Activity [2]: 64.82%

Compound: COc1cc([C@@H](O)[C@@H](CO)Oc2ccc([C@@H](O)[C@H](CO)Oc3c(OC)cc(CCCO)cc3OC)cc2OC)ccc1O
- Activity [10]: 77.58%

Compound: COc1cc([C@@H](O)[C@@H](CO)Oc2c(OC)cc([C@@H]3OC[C@@H]4[C@H]3CO[C@H]4c3cc(OC)c(O)c(OC)c3)cc2OC)ccc1O
- IC50 [11]: 15.4 µM

Compound: OC[C@@H]1Oc2ccc([C@H]3OC[C@H]4[C@@H]3CO[C@@H]4c3ccc(O)c(O)c3)cc2O[C@H]1c1ccc(O)c(O)c1 [PRINCEPIN]
- IC50 [14]: 1.28 µM

Compound: COC[C@H]1c2cc(C[C@@H]3C(=O)OC[C@H]3Cc3ccc(O)c(OC)c3)ccc2O[C@@H]1c1ccc(O)c(OC)c1
- Activity [2]: 8.59%

Compound: COc1cc([C@@H](OC)[C@@H](CO)Oc2c(OC)cc([C@@H]3Oc4c(OC)cc([C@H](O)[C@@H](O)CO)cc4[C@H]3CO)cc2OC)ccc1O
- Activity [10]: 90.74%
- Activity [1]: 90.74%

Compound: C=CCc1ccc(O)c(-c2cc(CC=C)cc(-c3cc(CC=C)ccc3O)c2O[C@@H]2C[C@@H](C(C)C)C=C[C@]2(C)O)c1
- IC50 [19]: 6.55 µM

Compound: COc1cc([C@@H](O)[C@@H](CO)Oc2ccc([C@H](O)[C@H](CO)Oc3c(OC)cc([C@H](O)[C@@H](O)CO)cc3OC)cc2OC)ccc1O
- Activity [1]: 75.8%
